From publication PMC5190008, “BO-1055, a novel DNA cross-linking agent with remarkable low myelotoxicity shows potent activity in sarcoma models” (Oncotarget, 2016)
pIC50: −log10 of the molar value.

How the values were obtained:
Ewing sarcoma cell lines = test: Alamar Blue cell proliferation assay; assay type: cell-based, human
Description: (§1) AlamarBlue® assay (Invitrogen, Carlsbad, CA, USA) was performed to evaluate anti-proliferative activity of the drugs in cell lines and primary cells. Cells were plated in 96-well plates ([…] in 200 μL of medium). After 12 h, one of the previously mentioned drugs was added to each well at the specified concentration and incubated for 72 h. At the end of the incubation period, 20 μL of stock solution (0.312 mg/mL) of the Alamar Blue was added to each well. The absorbance was measured using the Synergy H1 hybrid multi-mode microplate reader (BioTek, USA). The drug effect was quantified as the percentage of control absorbance at 540 nm and 585 nm. Optical density was determined for 3 replicates per treatment condition and cell proliferation in drug-treated cells was normalized to their respective controls. All experiments were performed in triplicate.
(§2) Data are presented as mean±S.E.M. of at least three independent experiments done in triplicate. […] Combination index (CI) values, as calculated by CompuSyn software (Chou and Martin, 2007), were used to evaluate the interaction between BO-1055 and a second drug (Topotecan, SN38, Doxorubicin or PU-H71). The Chou-Talalay method was used to quantify the synergism (CI < 1), additive effect (CI = 1) and antagonism (CI > 1) of various drug combinations.

[1] = test system: rhabdomyosarcoma cell lines; test: Alamar Blue cell proliferation assay; assay type: cell-based, human
Description: as §1, §2

A204 cells = test: Alamar Blue cell proliferation assay; assay type: cell-based; conditions: Homo sapiens; A204, 72 h drug exposure
Description: as §1
(§3) Data are presented as mean±S.E.M. of at least three independent experiments done in triplicate. The comparison of means between treated and control mice was performed using two-tailed T-test or ANOVA (for more than two groups) as implemented in GraphPad Prism (version 4; GraphPad Software). Graphpad Prism software was used to plot concentration-effect curves and determine the drug concentration that inhibited the growth of cell lines by 50% compared to the control (IC50). A p-value of 0.05 or less was considered significant. Combination index (CI) values, as calculated by CompuSyn software (Chou and Martin, 2007), were used to evaluate the interaction between BO-1055 and a second drug (Topotecan, SN38, Doxorubicin or PU-H71). The Chou-Talalay method was used to quantify the synergism (CI < 1), additive effect (CI = 1) and antagonism (CI > 1) of various drug combinations.

A673 cells [2] = test: Alamar Blue cell proliferation assay; assay type: cell-based; conditions: Homo sapiens; A673, 72 h drug exposure
Description: as §1, §3

DSRCT cell lines = test: Alamar Blue cell proliferation assay; assay type: cell-based; conditions: Homo sapiens
Description: as §1, §3

H526 cells = test: Alamar Blue cell proliferation assay; assay type: cell-based; conditions: Homo sapiens, NCI-H526; H526 (small cell lung cancer)
Description: as §1, §3

OSA cells = test: Alamar Blue cell proliferation assay; assay type: cell-based; conditions: Homo sapiens, 72 h drug exposure
Description: as §1, §3

RH30 cells = test: Alamar Blue cell proliferation assay; assay type: cell-based; conditions: Homo sapiens; RH30, 72 h drug exposure
Description: as §1, §3

SAOS cells = test: Alamar Blue cell proliferation assay; assay type: cell-based; conditions: Homo sapiens, 72 h drug exposure
Description: as §1, §3

TC32 cells = test: Alamar Blue cell proliferation assay; assay type: cell-based; conditions: Homo sapiens, TC-32; TC32, 72 h drug exposure
Description: as §1, §3

U2OS cells = test: Alamar Blue cell proliferation assay; assay type: cell-based; conditions: Homo sapiens, 72 h drug exposure
Description: as §1, §3

osteosarcoma cell lines = test: Alamar Blue cell proliferation assay; assay type: cell-based; conditions: Homo sapiens
Description: as §1, §3

Human MSC = test: Comet assay; assay type: cell-based; conditions: 3h
Description: We used comet assay, which includes single cell gel electrophoresis to assess DNA breaks when exposed to radiation or DNA damaging agents. […] Olive moment (micrometers), a product of tail DNA% and the distance between the centroids of head and tail, is an accurate parameter of DNA damage. […] Gamma-H2AX (γH2AX) phosphorylation is the initial step in DNA damage response following double stranded breaks and is responsible for recruiting DNA repair proteins.
Comet assay was performed according to the protocol described earlier. Cells were treated with BO-1055 at 2μM concentration for 3h, or immediately after exposure to 8Gy radiation after which they were isolated and mixed with 1% low melting point agarose in a tube. The cells in agarose were transferred to slides coated with normal melting point agarose. The agarose-immobilized cells were lysed in alkaline solution and the agarose trapped DNA was electrophoresed. DNA was stained with ethidium bromide and image acquisition was done immediately. DNA damage quantification was performed using OpenComet v1.3, an open-source software plugin in Image J 1.47v software (NIH, USA) for automated analysis. Olive moment, which is the product of tail DNA% and the distance between the intensity-weighted centroids of head and tail was taken from the output for analysis.

A673 cells [3] = test: Drug combination study (Alamar Blue, Chou-Talalay combination index); assay type: cell-based, human
Description: The AlamarBlue® cell proliferation assay was used to test the effect of a single drug and a combination of drugs. A673 cells (5 × 10^3 cells/well) were added to 96 well plates in triplicate. After 12h incubation, BO-1055 and a second drug (Topotecan, SN38, Doxorubicin or PU-H71) were added simultaneously in a lattice format in varying concentrations. Plates were read after 72h drug exposure. Combination indices were derived as described below to identify the interaction in two-drug combinations.
as §3

In the case of `CN(C)CCNC(=O)c1cccc(NC(=O)Nc2ccc(N(CCCl)CCCl)cc2)c1` [BO-1055], the IC50 (Ewing sarcoma cell lines) was “submicromolar”, the IC50 [1] was “submicromolar” and the pIC50 (A204 cells) was 7.10. The pIC50 (A673 cells [2]) was 6.28, the pIC50 (DSRCT cell lines) was 5.52 to 5.70 and the pIC50 (H526 cells) was 6.60. For the same compound, the pIC50 (OSA cells) was under 5.00, the pIC50 (RH30 cells) was 6.62 and the pIC50 (SAOS cells) was under 5.00. The pIC50 (TC32 cells) was 6.22, the pIC50 (U2OS cells) was under 5.00 and the pIC50 (osteosarcoma cell lines) was under 5.00. The “olive moment relative to radiation (XRT, 8Gy)” value (Human MSC) was “relatively less”, the “drug interaction (combination index)” value (A673 cells [3]; BO-1055 combined with PU-H71, A673, 72h) was “synergistic” and the “drug interaction (combination index)” value (A673 cells [3]; BO-1055 combined with SN-38, A673, 72h) was “highly synergistic”. The “drug interaction (combination index)” value (A673 cells [3]; BO-1055 combined with doxorubicin, A673, 72h) was “synergistic” and the “drug interaction (combination index)” value (A673 cells [3]; BO-1055 combined with topotecan, A673, 72h) was “synergistic”.
